{"source": "paper PMC6941661", "about": "(Cell host & microbe, 2019)", "test_system": "N9 NA of A/Shanghai/2/2013 (SH13) (H7N9), virus A/Shanghai/2/2013 (H7N9)-PR8-IDCDC-RG32A", "type": "biochemical, Influenza A virus (A/Shanghai/2/2013(H7N9))", "data": [{"smiles": "CC(=O)N[C@H]1[C@H]([C@H](O)[C@H](O)CO)OC(C(=O)O)=C[C@@H]1N=C(N)N", "note": "[zanamivir]", "values": [{"measurement": "IC50", "value": 7.6, "unit": "nM"}]}]}
